From paper PMC7689916, “A Fluorescence Resonance Energy Transfer-Based Analytical Tool for Nitrate Quantification in Living Cells” (ACS Omega, 2020) come the findings set out here.

Holding throughout (test): FRET ratio (YFP/CFP, […] nm) titration of purified sensor
Holding throughout (type): binding

The target in experiment [1] is T1, NrtA (FLIP-NT; CFP_NrtA_YFP) (Synechocystis sp. PCC 6803, UniProt P73452, W102A).
T1 construct: FRET sensor: His6-CFP-NrtA-YFP; NrtA without signal peptide (first 36 residues), stop and penultimate codon removed (1227 bp, 409 residues); E. coli BL21-CodonPlus(DE3), Ni-NTA
T1 sequence (P73452 37-445 W102A): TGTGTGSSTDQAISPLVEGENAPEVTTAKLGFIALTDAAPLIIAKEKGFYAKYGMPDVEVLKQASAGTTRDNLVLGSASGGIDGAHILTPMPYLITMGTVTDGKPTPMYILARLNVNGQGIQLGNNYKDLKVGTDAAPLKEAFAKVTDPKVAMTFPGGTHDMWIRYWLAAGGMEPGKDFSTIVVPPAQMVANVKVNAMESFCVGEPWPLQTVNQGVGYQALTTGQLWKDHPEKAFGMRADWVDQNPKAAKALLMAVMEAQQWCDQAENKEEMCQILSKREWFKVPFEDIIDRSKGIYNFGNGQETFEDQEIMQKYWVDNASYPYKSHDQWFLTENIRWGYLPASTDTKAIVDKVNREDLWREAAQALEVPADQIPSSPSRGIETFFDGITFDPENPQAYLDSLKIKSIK

In experiment [2] the target is T2, NrtA (FLIP-NT; CFP_NrtA_YFP) (Synechocystis sp. PCC 6803, UniProt P73452, Q155I).
T2 construct: FRET sensor: His6-CFP-NrtA-YFP; NrtA without signal peptide (first 36 residues), stop and penultimate codon removed (1227 bp, 409 residues); E. coli BL21-CodonPlus(DE3), Ni-NTA
T2 sequence (P73452 37-445 Q155I): T1 sequence (P73452 37-445 W102A) with A66W, Q119I

For experiment [3], the target named is T3, NrtA (FLIP-NT; CFP_NrtA_YFP) (Synechocystis sp. PCC 6803, UniProt P73452, G240Q).
T3 construct: FRET sensor: His6-CFP-NrtA-YFP; NrtA without signal peptide (first 36 residues), stop and penultimate codon removed (1227 bp, 409 residues); E. coli BL21-CodonPlus(DE3), Ni-NTA
T3 sequence (P73452 37-445 G240Q): T1 sequence (P73452 37-445 W102A) with A66W, G204Q

Experiment [4] deals with T4, NrtA (FLIP-NT; CFP_NrtA_YFP) (Synechocystis sp. PCC 6803, UniProt P73452).
T4 construct: FRET sensor: His6-CFP-NrtA-YFP; NrtA without signal peptide (first 36 residues), stop and penultimate codon removed (1227 bp, 409 residues); E. coli BL21-CodonPlus(DE3), Ni-NTA
T4 sequence (P73452 37-445): T1 sequence (P73452 37-445 W102A) with A66W

SMILES strings stand for the structures. Residue numbers refer to the chain shown, from its start.

On to `O=[N+]([O-])O` [nitrate], for which the Kd – broadly, a measure of binding affinity in units of concentration – in experiment [1] amounted to 56 µM; in experiment [2] it was 1 µM; in experiment [3] it was 32 µM; in experiment [4] it was 5 µM.
